Measured values taken from US7026282B1, “Peptide antagonists of the human urokinase receptor and method for selecting them” (Cancerforskningsfonden AF 1989 (Fonden Til Fremme AF …, priority 1998, dated 2006).
Positions of bridges follow the written chain, without caps; N, C: chain ends. Non-standard residues stand in square brackets, D forms with d. Residues, ends and D or L forms follow the SMILES beside them. Chains are numbered I, II in the order given. No end group written: not given here. Cha = N[C@@H](CC1CCCCC1)C(=O)O; βAla = NCCC(=O)O

What was measured:
[1] = Mouse tolerance of peptide dosing; format: in vivo; settings: 4 i.p. injections 8 hours apart, 1.38 mg each, total 5.52 mg per mouse
Procedure: Mice were given a series of 4 intraperitoneal injections, spaced 8 hours apart, of peptide AE120 dispersed in a poloxamer formulation containing 2.9% DMSO. Each injection delivered 1.38 mg of peptide in 200 μL of formula, so that each mouse received a total of 5.52 mg over the 24-hour study period.

[2] = biological target: T1, neuramimidase-treated human suPAR (soluble recombinant uPAR) (Homo sapiens, UniProt Q03405); experiment: Biacore Binding Assay (surface plasmon resonance), ligand binding to immobilised suPAR; settings: for koff: Biacore, 5° C., immobilised suPAR, read-out: kdiss (dissociation rate constant, off-rate)
T1 construct: A soluble recombinant variant of human uPAR (suPAR) was expressed in Chinese hamster ovary (dhfr) cells; made in house; host or cells: Chinese hamster ovary (dhfr) cells
Procedure: Association rate constants (kass), dissociation rate constants (kdiss) and equilibrium binding constants (kd) for various synthetic peptides and receptor binding derivatives of human uPA were determined by surface plasmon resonance (R. Karlsson et al. (1991) J. Immunol. Meths. 145:229–240) using a BIAcore2000™ instrument (Pharmacia Biosensor, Uppsala, Sweden). Due to the low isoelectric point of uPAR (pI≈4.5) terminal sialic acid residues were removed from its N-linked carbohydrates to facilitate chemical immobilisation on the sensor chip. This was accomplished by incubating purified suPAR (1 mg/ml in 50 mM phosphate, 150 mM NaCl, pH 7.4) with 5 μg/ml neuramimidase for 4 hours at 37° C. […] Coupling of the neuramimidase-treated suPAR to a BIAcore sensor chip was achieved by injection of 20 μg/ml suPAR in 10 mM sodium acetate pH 5.0 for 6 minutes at a flow rate of […] per minute using a carboxymethylated dextran matrix (CM5 sensor chip) preactivated with N-hydroxysuccinimide/N-ethyl-N′-[3-([…])propyl]carbodiimide according to the manufacturer's recommendations. Approximately 1,500–2,000 resonance units (RU) were immobilised by this procedure (corresponding to 1–2 ng suPAR/mrn^2).
Sensorgrams (RU versus time) were recorded (FIG. 2) at a flow rate of 10 μl per min at 5° C. using several different concentrations of the ligand (synthetic peptides, uPA, the amino-terminal fragment (ATF) of uPA, or the growth factor domain (GFD) of uPA) in the range of 10 to 1000 nM in running buffer (10 mM HEPES, 150 mM NaCl, 3 mM EDTA (pH 7.4) including 0.005% surfactant P-20). Stock solutions of peptides from combinatorial chemistry were made in DMSO (10 mg peptide/ml DMSO). The sensor chip was regenerated at the end of each run by injection of 0.1 M acetic acid, 0.5 M NaCl. Data obtained from parallel mock coupled flow cells (subjected to the coupling procedure in the presence of buffer only) served as blank sensorgrams for subtraction of changes in bulk refractive index. The sensorgrams obtained were analysed by non-linear least squares fitting using BIAevaluation 2.0 software (Pharmacia Biosensor, Uppsala, Sweden) assuming single-site association and dissociation models.
Purified human suPAR (1 mg/ml in 50 mM phosphate, 150 mM NaCl, pH 7.4) was incubated with 5 μg/ml neuramimidase for 4 hours at 37° C.
In order to couple the neuramimidase-treated suPAR to a BIAcore sensor chip, 20 μg/ml suPAR in 10 mM sodium acetate (pH 5.0) was injected for 6 minutes at a flow rate of 5 μl per minute using a carboxymethylated dextran matrix (CM5 sensor chip), thereby immobilising approximately 1,500–2,000 resonance units (RU), which correspond to 1–2 ng suPAR/mm^2. The CM5 sensor chip was preactivated with N-hydroxysuccinimide/N-ethyl-N′-[3-([…])propyl]carbodiimide in accordance with the manufacturer's recommendations.
Surface plasmon resonance sensorgrams (RU versus time) were recorded at a flow rate of 10 μl per min at 5° C. using several different concentrations of the ligand (i.e. the relevant peptide or GFD) in the range from 10 to 1000 nM in running buffer (10 mM HEPES, 150 mM NaCl, 3 mM EDTA (pH 7.4) including 0.005% surfactant P-20).
The sensor chip was regenerated at the end of each run by injection of 0.1 M acetic acid, 0.5 M NaCl.
Data from parallel mock coupled flow cells (subjected to the coupling procedure in the presence of buffer only) served as blank sensorgrams for subtraction of changes in bulk refractive index.
The obtained sensorgrams were analysed by non-linear least squares fitting using BIAevaluation 2.0 software (Pharmacia Biosensor, Uppsala, Sweden) assuming single-site ssociation and dissociation models.

[3] = Peptide stability in mouse serum ex vivo, read out by ATF cell-binding inhibition; format: in vitro ADME; settings: 10% mouse serum, up to 24 hours, 37° C.
Procedure: Mouse blood was collected from anaesthetised mice (femal nu/nu-META/Bom (Bomholtgaard, Ry, Denmark)) by cardiac puncture. The blood samples were allowed to clot for 30 min at room temperature, followed by centrifugation at 1,000×g for 10 min at 20° C., and the sera were sterile filtered using 0.8 μm/0.2 μm filters (Acrodisc PF, Gelman Science, MI) and then stored at 4° C. until use. The peptide antagonists were added to fresh pooled mouse serum at the indicated concentrations (FIG. 5) and incubated at 37° C. for different periods, between 0 hours and 24 hours. Serum incubated samples were diluted 1:10 in binding buffer (0.1% bovine serum albumin and 5 mM Hepes in Eagles MEM supplemented with Glutamax-1, pH 7.4). Subsequently, cell binding experiments in the presence of ^125I-labelled human ATF were performed in duplicates as above, by preincubating MDA-MB-231 BAG cells at 37° C. 15 min with the 1:10 diluted serum incubated samples ± peptides. In parallel, peptides diluted in binding buffer alone were included as controls.
AE118 and AE78 (for comparison) were incubated at 37° C. in the presence of 10% mouse serum for different time intervals, up to 24 hours. The incubation mixtures were tested for their ability to inhibit binding of radio-labelled human uPA amino terminal fragment (ATF) to monolayer cultures of human MDA-MB-231 breast cancer cells, as described in Example 7.

[4] = Pharmacokinetic experiment: functional peptide in mouse serum after i.p. injection; format: in vivo; settings: 62.5 mg/kg, 1 to 24 hours
Procedure: Female nu/nu-META/Bom mice were injected intraperitoneally (i.p) with a solution of the peptide AE 120 (6.25 mg/ml in 0.5% (w/v) poloxamer 237 in PBS, pH 7.3) at a dose of 62.5 mg/kg mouse weight. At different time points between 1 hour and 24 hours, blood was collected from anaesthetised mice by cardiac puncture. The blood samples were allowed to clot for 30 min at room temperature, followed by centrifugation at 1,000×g for 10 min at 20° C., and the sera were stored frozen at −80° C. prior to assay. The presence of functional peptide antagonists in serum was determined by diluting the serum samples 1:10 with binding buffer (0.1% bovine serum albumin and 5 mM Hepes in Eagles MEM supplemented with Glutamax-1, pH 7.4) and analysing the samples in cell binding experiments with MDA-MB-231 BAG cells and ^125I-labelled human ATF as described in Example 7. As an internal standard, AE120 was added exogenously to pooled mouse sera at final concentrations of 12.5 nM, 25 nM, 125 nM and 250 nM.

[5] = biological target: uPAR-ATF interaction (Homo sapiens, UniProt Q03405); settings: read-out: apparent inhibition constant; cited from earlier work
uPAR-ATF interaction, sequence (Q03405 23-305 limits assumed): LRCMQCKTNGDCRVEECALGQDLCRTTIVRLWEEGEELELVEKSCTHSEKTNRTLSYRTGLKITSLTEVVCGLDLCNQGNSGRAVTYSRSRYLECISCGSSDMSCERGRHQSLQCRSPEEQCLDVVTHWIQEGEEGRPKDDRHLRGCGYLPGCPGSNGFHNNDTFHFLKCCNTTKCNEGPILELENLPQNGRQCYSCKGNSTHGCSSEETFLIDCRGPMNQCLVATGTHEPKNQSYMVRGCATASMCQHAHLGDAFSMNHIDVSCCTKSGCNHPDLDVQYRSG

Compound	tolerance: effect on behaviour or well-being [1]	koff [2] [s⁻¹]	ability to inhibit ATF binding after incubation in mouse serum (stability) [3]	activity of peptide antagonist in mouse serum after dosing [4]	Relative kdiss ([2]; relative to the Growth Factor Domain of uPA (GFD = 1.0))	Ki [5] [nM]
CC(C)C[C@H](NC(=O)[C@H](Cc1ccc(O)cc1)NC(=O)[C@@H](CCCNC(=N)N)NC(=O)[C@@H](CO)NC(=O)[C@H](Cc1ccccc1)NC(=O)[C@H](CC1CCCCC1)NC(=O)[C@@H](N)CC(=O)O)C(=O)N[C@@H](Cc1c[nH]c2ccccc12)C(=O)N[C@@H](CO)C(=O)NCC(=O)NCCCC[C@H](NC(=O)CCNC(=O)CNC(=O)[C@H](CO)NC(=O)[C@H](Cc1c[nH]c2ccccc12)NC(=O)[C@H](CC(C)C)NC(=O)[C@H](Cc1ccc(O)cc1)NC(=O)[C@@H](CCCNC(=N)N)NC(=O)[C@@H](CO)NC(=O)[C@H](Cc1ccccc1)NC(=O)[C@H](CC1CCCCC1)NC(=O)[C@@H](N)CC(=O)O)C(=O)O [AE120, α-[DChaFsrYLWSGβA]-ε-[DChaFsrYLWSG]-K] (I: H-D[Cha]F[dS][dR]YLWSG[βAla]K-OH / II: H-D[Cha]F[dS][dR]YLWSG; amide I:12-II:C)	no visible sign of any effect on the behaviour or well-being of the mice	3e-05	slight reduction	retained its activity in mouse serum for several hours		
AEPMPHSLNFSQYLWYT [AE78, reference compound]		0.0101	lost the majority of its inhibitory activity		72.1	10
